What was measured:
[1] = system: minimum of 12 human cancer cell lines; test: Hollow fiber assay in mice, point score; type: in vivo; conditions: for Hollow Fiber Assay IP score: first number of cell; for Hollow Fiber Assay SC score: second number of cell; for IP+SC score / SC score: hollow fiber assay
Description: Compounds satisfying Formulas 1 and 2 also have been tested for in vivo activity in the hollow fiber assay. See Example 12 below for the procedure used for the in vivo tests. Each compound tested was tested against a minimum of 12 human cancer cell lines. Data is reported as % T/C (i.e., the […]) for each of the 2 compound doses against each of the cell lines with separate values calculated for the intraperitoneal and subcutaneous samples, with a target value for % T/C being about 50 or less.
Compounds were selected for further in vivo testing in standard subcutaneous xenograft models on the basis of several hollow fiber assay criteria. These criteria include: (1) a % T/C of 50 or less in 10 of the 48 possible test combinations (12 cell lines×2 sites×2 compound doses); (2) activity at a distance (intrapentoneal drug/subcutaneous culture) in a minimum of 4 of the 24 possible combinations; and/or (3) a net cell kill of 1 or more cell lines in either implant site. To simplify evaluation, a point system has been adopted which allows rapid assessment of a compound's activity. A value of 2 is assigned for each compound dose which results in a 50% or greater reduction in viable cell mass. The intraperitoneal and subcutaneous samples were scored separately so that criteria (1) and (2) could be evaluated. Compounds with a combined IP+SC score≧20, an SC score≧8, or a net cell kill of one or more cell lines were referred for xenograft testing. These criteria have been statistically validated by comparing the activity outcomes of greater than 80 randomly selected compounds in the hollow fiber assay and in the xenograft testing.
This example describes the method used for in vivo testing of mice. Human cancer cells were cultivated in polyvinylidene fluoride (PVDF) hollow fibers. A sample of each cancer cell line was implanted intraperitoneally and subcutaneously in mice. Each mouse received a total of 6 fibers, 3 intraperitoneally and 3 subcutaneously, representing 3 distinct cancer cell lines. Three mice were treated with compounds made according to the present invention at each of two test doses intraperitoneally using a QD×4 treatment schedule. Vehicle controls consisted of 6 mice receiving the compound diluent only The fiber cultures were collected on the day following the last treatment. Anticancer effects were assessed by determining viable cell mass for each of the coil line using a formazan dye (MTT) conversion assay. From this, the % TIC was calculated using the average optical density of the compound-treated samples divided by the average optical density of the vehicle controls. In addition, the net increase in cell mass was determined for each sample as samples of fiber cultures were assessed for viable cell mass on the day of implantation into mice. This allowed cytostatic and cytocidal capacities of these compounds to be assessed.

[2] = system: panel of approximately 60 different human tumor cell lines; test: National Cancer Institute drug screen, mean-graph parameters; type: cell-based; conditions: mean over cell line panel, two days exposure; for GI50: Homo sapiens, 48 h, read-out: Tumor Cell Mean log GI50 (converted)
Summary of the method: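 About 60 human tumour cell lines in eight histology subpanels were exposed continuously to a concentration range for two days. GI50 (50% growth decrease versus untreated control), TGI (cell number equal to start) and LC50 (50% reduction versus start) were derived per cell line and summarised as mean-graph negative log10 values.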

[3] = Table 8, intraperitoneal fibers

SMILES	Hollow Fiber Assay IP score ([1]; Table 10)	Hollow Fiber Assay SC score ([1]; Table 10)	Hollow Fiber Assay Total Ip and SC Score ([1]; Table 10)	Tumor Cell Mean log TGI ([2]; Table 10)	Hollow Fiber Assay IP score [1, 3]	Hollow Fiber Assay SC score ([1]; Table 8, subcutaneous fibers)	Hollow Fiber Assay Total Ip and SC Score ([1]; Table 8)	Tumor Cell Mean log GI50 ([2]; Table 8)	Tumor Cell Mean log TGI ([2]; Table 8)	other results
COC(=O)c1ccc(/C=C/C2=CC(=O)C=CC2=O)cc1 [COOCH3 / 2,5-quinoyl / CH═CH / H]	2	0	2	−4.40						Tumor Cell Mean log GI50 ([2]; Table 10): −4.86
CC(C)C(OC(=O)c1ccc(NCC2=CC(=O)C=CC2=O)cc1)C(C)C [COOCH[CH(CH3)2]2 / H / 2,5-quinoyl]										Hollow Fiber Assay IP score ([1]; Table 9, intraperitoneal fibers): 2; Hollow Fiber Assay SC score ([1]; Table 9, subcutaneous fibers): 4; Hollow Fiber Assay Total Ip and SC Score ([1]; Table 9): 6; Tumor Cell Mean log GI50 ([2]; Table 9): −5.25; Tumor Cell Mean log TGI ([2]; Table 9): −4.78
CC(C)OC(=O)c1ccc(NCc2cc(O)ccc2O)cc1 [COOCH(CH3)2 / H / H]					4	6	10	−5.52	−4.84	
CC(C)OC(=O)c1ccc(CCC2=CC(=O)C=CC2=O)cc1 [COOCH(CH3)2 / 2,5-quinoyl / CH2—CH2 / H]	0 + 0 = 0	0 + 0 = 0	0 + 0 = 0	−4.58						Tumor Cell Mean log GI50 ([2]; Table 10): −5.05
O=C(OCC12CC3CC(CC(C3)C1)C2)c1ccc(NCc2cc(O)ccc2O)cc1 [Compound 7, 4′-4′-adamantylmethylbenzoate-1′-N-2,5-dihydroxybenzylamine]					12	8	20	−5.89	−5.09	IP+SC score [1]: 20; SC score [1]: 8
O=C(OCc1ccccc1)c1ccc(NCc2cc(O)ccc2O)cc1 [COOCH2Ph / H / H]					6	2	8	−5.85	−5.35	
O=C(OC12CC3CC(CC(C3)C1)C2)c1ccc(NCc2cc(O)ccc2O)cc1 [Compound 6, 4′-adamantylbenzoate-1′-N-2,5-dihydroxybenzylamine]					8	8	16	−6.03	−5.44	IP+SC score [1]: 16; SC score [1]: 8
CC(C)OC(=O)c1ccc(NCc2cc(O)ccc2O)cc1Cl [COOCH(CH3)2 / Cl / H, 5′-chloro-4′-isopropylbenzoate-1′-N-2,5-dihydroxybenzylamine]					2	0	2	−5.46	−5.65	
CC(C)C(OC(=O)c1ccc(NCc2cc(O)ccc2O)cc1)C(C)C [COOCH[CH(CH3)2]2 / H / H]					4	2	6	−5.91	−5.35	
CC(C)(C)OC(=O)c1ccc(NCc2cc(O)ccc2O)cc1 [COOC(CH3)3 / H / H, 4′-t-butylbenzoate-1′-N-2,5-dihydroxybenzylamine]					2	2	4	−5.66	−5.03	
CC(C)OC(=O)c1ccc(CCC2=CC(=O)C(Br)=CC2=O)cc1	0 + 0 = 0	0 + 0 = 0	0 + 0 = 0	−4.48						Tumor Cell Mean log GI50 ([2]; Table 10): −4.85
COC(=O)c1ccc(C=Cc2cc(O)ccc2O)cc1 [COOCH3 / 2,5-dihydoxyphenyl / CH═CH / H]	2	4	6	−4.81						GI50 ([2]; Table 10): 3.31 µM
COC(=O)c1ccc(CCc2cc(O)c(Br)cc2O)cc1	0 + 0 = 0	0 + 0 = 0	0 + 0 = 0	−4.54						GI50 ([2]; Table 10): 12.3 µM
COC(=O)c1ccc(CCC2=CC(=O)C(Br)=CC2=O)cc1	0 + 0 = 0	0 + 0 = 0	0 + 0 = 0	−4.43						GI50 ([2]; Table 10): 14.1 µM

Reference: US6943191B1, “Disubstituted lavendustin A analogs and pharmaceutical composition comprising the analogs” (The United States of America as represented by the …, priority 1998, dated 2005)
